The results in this text go back to the METLIN SMRT retention time set (Domingo-Almenara et al. 2019).

This data set can be described thus: gradient 5% acetonitrile 3 min, to 50% in 2 min, to 85% in 15 min, held 3 min, 100 µL/min. To be noted: column: Zorbax Extend-C18 2.1 x 50 mm; eluents: water / acetonitrile, 0.1% formic acid. A digest of the protocol:
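Pure standards were run in mixtures of ~100 molecules by HPLC coupled to a quadrupole time-of-flight mass spectrometer. The column was a Zorbax Extend-C18 (2.1 × 50 mm, 1.8 μm) at 100 μL/min, with water and acetonitrile each containing 0.1% formic acid, in positive and negative ionization mode. Dead and dwell volumes were 40 μL and 900 μL. Retention time was taken from computationally picked adduct peaks, each manually inspected, with data collected over 3 months.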
`CC(C)(C)NC(=O)c1ccc2c(c1)CCCN2S(=O)(=O)c1ccccc1` gave an RP-LC retention time of 979 s. The same measure for `CCOC(=O)c1[nH]c(C)c(CCC(=O)N2CCCC(C(=O)NC3CCCCC3)C2)c1C` (stereo not given): 822 s; for `CCCC(=O)NC1CCN(c2cc(C)cc(C)c2)C1=O` (stereo not given): 750 s. The same measure for `Cc1[nH]nc(-c2c(C)sc(C)c2S(=O)(=O)NCC(C)c2ccccc2)c1C` (stereo not given): 1090 s. The same measure for `Cc1nc(CC(=O)NCc2ccc(F)cc2F)sc1C(=O)NC1CC1`: 693 s.

Consider `O=C(CCS(=O)(=O)c1ccccc1)Nc1nc(-c2ccccc2)cs1`, for which the RP-LC retention time was determined as 1120 s. The same measure for `CC(CCc1ccccc1)NC(=O)C1CCCN(c2nccnc2Oc2ccccc2)C1` (stereo not given): 1100 s. In turn, `O=C(O)Cc1sc(Nc2ccccc2Cl)nc1-c1ccccc1` showed an RP-LC retention time of 942 s. The value for `Cc1nn(-c2nc(-c3ccc(Cl)cc3)cs2)c(C)c1CC(=O)Nc1ccccc1F` was 1260 s; that for `O=C(NCCn1nnc2cc(C(=O)N3CCCC3)ccc21)Nc1ccc(Cl)cc1` was 792 s. The same measure for `COc1cc(OC)c(NC(=O)CCSc2nc3c(=O)n(C)c(=O)n(C)c3n2C)cc1Cl`: 735 s; for `CCOc1ccnc2c1c(=O)n(CC(=O)Nc1cccc(C(F)(F)F)c1)c(=O)n2C`: 782 s; for `COc1ccc(OC)c(NC(=O)C2(C)Oc3cccnc3NC2=O)c1` (stereo not given): 746 s. The value for `COC(=O)c1ccc2c(=O)n(-c3ccccc3)c(N3CCN(C)CC3)nc2c1` was 624 s; that for `COc1ccc(-c2noc(-c3nc(C)no3)n2)cc1` was 920 s. As to `CCOC(=O)N1CCc2c(sc(NC(=O)C3CCCN(S(C)(=O)=O)C3)c2C#N)C1` (stereo not given), the RP-LC retention time turned out to be 767 s.

The molecule `CCN1CCN(C(=O)c2nc(N(CC)CC)c3c(C)cc(C)nc3n2)CC1` came in with an RP-LC retention time of 550 s. The same measure for `Cc1ccc(OCC(=O)NCC2CCN(Cc3ccncc3)CC2)cc1`: 543 s; for `COCCCNC(=O)c1ccc2c(c1)nc1n2CCCCC1`: 566 s; for `COCCCNC(=O)C1CN(C(=O)c2ccccc2)CC12CCCCC2` (stereo not given): 571 s. Turning to `COc1cccc(-c2noc(Cn3ccn(Cc4ccc(Cl)cc4)c(=O)c3=O)n2)c1`, the RP-LC retention time is 895 s. The same measure for `Cc1ccccc1C1CCCN1C(=O)c1c(Cl)cnn1C` (stereo not given): 892 s; for `CCn1c(=O)oc2cc(-c3noc(-c4cc(C)cc(C)c4)n3)ccc21`: 1300 s; for `CCn1nc(-c2nc(-c3ccc(Cl)cc3)no2)ccc1=O`: 1030 s.

In turn, `CC(NC(=O)c1cc(-c2ccccc2)cn1C)c1cccnc1` (stereo not given) returned an RP-LC retention time of 662 s. Molecule `O=C(NCc1ccc(N2CCOCC2)cc1)c1cn2c(n1)COCC2` registered an RP-LC retention time of 597 s. The same measure for `COc1ccc(CN(C(=O)c2oc3ccccc3c2C)C2CCS(=O)(=O)C2)cc1OC` (stereo not given): 826 s. The same measure for `Cn1ncc(N2CCC(C(=O)N3CCc4ccccc43)C2)cc1=O` (stereo not given): 714 s; for `Cn1cc(CCNC(=O)Cc2ccccc2Cl)c2cccnc21`: 700 s.

In turn, `CCn1nccc1C(=O)Nc1c(-c2ccccc2)nc2sc(N3CCCCC3)nn12` gave an RP-LC retention time of 893 s. The value for `COc1ccc(-n2ccc(=O)c(-c3nc(-c4cccc(F)c4)no3)n2)cc1` was 868 s; that for `CC1CCN(C(=O)C2=CN(c3ccccc3)c3cc(Cl)ccc3S2(=O)=O)CC1` was 999 s; that for `O=C(Nc1cccc(Cl)c1)c1cn(CC2CCCO2)cc2c(=O)n(-c3ccccc3)nc1-2` (stereo not given) was 1100 s. The value for `COc1ccc2c(c1)C1(CCN(S(=O)(=O)c3ccc(Br)cc3)C1)C(=O)N2C` (stereo not given) was 986 s. The value for `Cc1nnc(N2CCCC(C(=O)NCCCN3CCCC3=O)C2)c2nn(-c3ccccc3)c(C)c12` (stereo not given) was 616 s; that for `O=C(NCCc1c[nH]c2ccc(Cl)cc12)c1cc2n(n1)CCCN(Cc1ccc(Cl)cc1)C2=O` was 998 s. Take `CCc1cc(=O)n(CC(=O)Nc2cc(F)ccc2C)c(N2CCOCC2)n1`: the RP-LC retention time was determined as 776 s. The value for `COc1cccc(-c2noc(C3CCCN3C(=O)Nc3cc(OC)ccc3OC)n2)c1` (stereo not given) was 849 s. The same measure for `CC1CCCCN1CCNC(=O)CCCn1c2ccccc2c2cnn(C)c(=O)c21` (stereo not given): 632 s; for `Cc1cccc(NC(=O)N2CCc3nc(-c4ccc(F)cc4)ncc3C2)c1C`: 974 s; for `Cc1ccc(-c2nnc(Cc3nc(-c4cccnc4)no3)o2)cc1C`: 845 s. The value for `Cc1ccc(F)c(NS(=O)(=O)c2ccc3c(c2)C(=O)N(C)c2ncccc2O3)c1` was 924 s; that for `COCc1noc([C@@H]2CC(F)(F)CN2C(=O)CC(C)(C)C)n1` was 830 s; that for `CN1CCc2nnc(C3CCN(C(=O)Nc4cc(F)cc(F)c4)C3)n2CC1` (stereo not given) was 593 s.

Molecule `COc1cc([C@@H]2c3cc4c(c(O)c3C[C@H]3COC(=O)[C@@H]32)OCO4)cc(OC)c1OC` yielded an RP-LC retention time of 620 s. The value for `CC1Oc2ccccc2N(Cc2nc(-c3ccccc3)no2)C1=O` (stereo not given) was 1040 s; that for `CCC(=O)N1CCc2cc(C)c(S(=O)(=O)NC3CCCC3)cc21` was 869 s; that for `CCc1ccc(CNC(=O)c2cc3ccncc3n2C)cc1` was 648 s. The value for `COc1cccc(CC(=O)N2CCC3(CC2)NC(=O)c2ccc(Cl)cc2N3)c1` was 790 s; that for `CC(C)n1c(N2CCN(C(=O)Cc3cccs3)CC2)cc(=O)n(C(C)C)c1=O` was 829 s. The molecule `O=C(Cc1cccc(F)c1)Nc1ccc2c(c1)CCC(=O)N2` gave an RP-LC retention time of 650 s. The value for `CCCn1c(=O)c(C)nc2cc(-c3noc(-c4ccc(F)c(F)c4)n3)ccc21` was 1230 s; that for `COc1ccc2c(c1)C1(CCN(S(=O)(=O)c3cccc(F)c3)C1)C(=O)N2` (stereo not given) was 835 s. The same measure for `CCn1c(=O)sc2cc(S(=O)(=O)N3CCC(C(=O)N4CCCCC4)CC3)ccc21`: 845 s. The value for `O=C(NC1CCCCC1)C1CCN(C(=O)C2Sc3ccccc3NC2=O)CC1` (stereo not given) was 732 s; that for `COc1ccc(-c2noc(C3CCCN3C(=O)C3CCC3)n2)cc1` (stereo not given) was 899 s; that for `CC(=O)c1cccc(NC(=O)Cn2cc(-c3nnc(C)o3)c3ccccc32)c1` was 755 s. In the case of `CCCn1cc(CCNS(=O)(=O)c2ccc(C)cc2C)c2cccnc21`, the RP-LC retention time amounted to 924 s. The same measure for `CCc1ccc(C2=C(C)C(N3CCCN(C(=O)NC4CCCC4)CC3)=NS2(=O)=O)cc1`: 865 s; for `Cc1ccccc1Cn1nc2ccc(S(=O)(=O)N3CCC(C)CC3)cn2c1=O`: 1060 s.
